Source: patent US20040180850A1, “Methods and compositions for treatment of gastric diseases” (priority 2001, published 2004)
“Also recorded” adds a separate entry of the source.

What was measured:
[1] = tested on: Helicobacter pylori (strain 032); assay: TLC bacterial overlay assay: binding of radiolabeled Helicobacter pylori to glycosphingolipids separated on thin-layer chromatograms; details: for Helicobacter pylori binding activity of glycosphingolipid (in words): TLC overlay with 35S-labeled bacteria, autoradiography; for binding frequency for Helicobacter pylori: strain 032, total number of plates about 100
[2] = tested on: Helicobacter pylori; assay: Semi-quantitative TLC overlay test with dilution series of glycosphingolipids; format: binding; details: evaluated visually after overlay with labeled bacteria and autoradiography
[3] = tested on: Helicobacter pylori; assay: TLC overlay assay of neoglycolipids (reductively aminated oligosaccharides); format: binding
Excerpt: The Helicobacter pylori binding oligosaccharide sequence has been reported in the structure GlcNAcβ3Galβ4GlcNAcβ6GalNAc from human gastric mucins. […] Therefore the preferred oligosaccharide sequences include O-glycans and analogues of O-glycan sequences such as GlcNAcβ3Galβ4GlcNAcβ6GlcNAc/GalNAc/Gal, GleNAcβ3Galβ4GlcNAcβ6GlcNAc/GalNAc/GalαSer/Thr, GlcNAcβ3Galβ4GlcNAcβ6(Gal/GlcNAcβ3)GlcNAc/GalNAc/GalαSer/Thr and glycopeptides and glycopeptide analogs comprising the O-glycan sequences. Even sequences lacking the non-reducing end GlcNAc may have some activity. Based on this all the other Helicobacter pylori binding oligosaccharide sequences (OS) and especially the trisaccharide epitopes are also especially preferred when linked from the reducing end to form structures OSβ6Gal(NAc)0-1 or OSβ6Glc(NAc)0-1 or OSβ6Gal(NAc)0-1Ser/Thr or OSβ6Glc(NAc)0-1αSer/Thr. The Ser or Thr-compounds or analogue thereof or the reducing oligosaccharides are also preferred when linked to a polyvalent carrier. The reducing oligosaccharides can be reductively linked to the polyvalent carrier.
TLC bacterial overlay assay. Thin-layer chromatography was performed on glass- or aluminum-backed silica gel 60 HPTLC plates (Merck, Darmstadt, Germany) using chloroform/methanol/water 60:35:8 (by volume) as solvent system. Chemical detection was accomplished by anisaldehyde stainig (Waldi, 1962). The bacterial overlay assay was performed as described previously (Hansson et al., 1985). Glycosphingolipids (1-4 μg/lane, or as indicated in the figure legend) were chromatographed on aluminum-backed silica gel plates and thereafter treated with 0.3-0.5% polyisobutylmethaerylate in diethylether/n-hexane 1:3 (by volume) for 1 min, dried and subsequently soaked in PBS containing 2% bovine serum albumin and 0.1% Tween 20 for 2 h A suspension of radio-labeled bacteria (diluted in PBS to 1×10^8 CFU/ml and 1-5×10^6 cpm/ml) was sprinkled over the chromatograms and incubated for 2 h followed by repeated rinsings with PBS. After drying the chromatograms were exposed to XAR-5 X-ray films (Eastman Kodak Co., Rochester, N.Y., USA) for 12-100 h.
0.6 mg of pentasaccharide was obtained after HPLC-purcation steps, the saccharide was more than 98% pure when analyzed by mass spectrometry. Part of the pentasaccharide and maltoheptaose (Sigma, Saint Louis, USA) were reductively aminated with 4-hexadecylamnie (abbreviation HDA, from Aldrich, Stockholm, Sweden) by cyanoborohydride (Halina Miller-Podraza, to be published later). […]

Compound	Helicobacter pylori binding activity of glycosphingolipid (in words) [1]	further results
Galβ4GlcNAcβ3Galβ4GlcNAcβ3Galβ4Glcβ1Cer [No. 21]	displayed binding activity	binding frequency for Helicobacter pylori [1]: ~90%; amount of glycolipid giving a positive response on TLC plates (binding of Helicobacter pylori) [2]: ~0.2 nmol/spot
GalNAcα3(Fucα2)Galβ4GlcNAcβ3Galβ4Glcβ1Cer [No. 22]	non-binding	
NeuAcα3GalNAcβ3Galβ4GlcNAcβ3Galβ4Glcβ1Cer [No. 24]	non-binding	
GalNAcβ3Galβ4GlcNAcβ3Galβ4Glcβ1Cer [No. 11]	binding was also found	
GlcNAcβ3Galβ4Glcβ1Cer [No. 1]	inactive	
CC(=O)N[C@H]1[C@H](OC[C@H]2OC(O)[C@H](O)[C@@H](O)[C@H]2O)O[C@H](CO)[C@@H](O[C@@H]2O[C@H](CO)[C@H](O)[C@H](O[C@@H]3O[C@H](CO)[C@@H](O)[C@H](O)[C@H]3NC(C)=O)[C@H]2O)[C@@H]1O (some centres unmarked) [GlcNAcβ3Galβ4GlcNAcβ6Gal]		binding activity of neoglycolipid with regard to Helicobacter pylori (in words) [3]: some binding activity
Galβ4Glcβ1Cer [diglycosylceramide]	displayed binding activity	
GalNAcβ3Galα3Galβ4GlcNAcβ3Galβ4Glcβ1Cer [No. 25]	non-binding	
Galβ4GlcNAcβ3Galβ4Glcβ1Cer [No. 5]	displayed binding activity	amount of glycolipid giving a positive response on TLC plates (binding of Helicobacter pylori) [2]: ~0.3 nmol/spot
Galα3(Fucα2)Galβ4GlcNAcβ3Galβ4Glcβ1Cer [No. 23]	non-binding	
Galα3Galβ4GlcNAcβ3Galβ4Glcβ1Cer [No. 13]	binding-active	
CC(=O)N[C@H]1[C@H](OC[C@H]2OC(O)[C@H](NC(C)=O)[C@@H](O)[C@@H]2O)O[C@H](CO)[C@@H](O[C@@H]2O[C@H](CO)[C@H](O)[C@H](O[C@@H]3O[C@H](CO)[C@@H](O)[C@H](O)[C@H]3NC(C)=O)[C@H]2O)[C@@H]1O (some centres unmarked) [GlcNAcβ3Galβ4GlcNAcβ6GlcNAc]		binding activity of neoglycolipid with regard to Helicobacter pylori (in words) [3]: high affinity binding
CCCCCCCCCCCCCCCCc1ccc(NC[C@H](O)[C@@H](O)[C@H](O[C@@H]2O[C@H](CO)[C@H](O)[C@H](O[C@@H]3O[C@H](CO)[C@@H](O[C@@H]4O[C@H](CO)[C@H](O)[C@H](O[C@@H]5O[C@H](CO)[C@@H](O)[C@H](O)[C@H]5NC(C)=O)[C@H]4O)[C@H](O)[C@H]3NC(C)=O)[C@H]2O)[C@H](O)CO)cc1 [GlcNAcβ3Galβ4GlcNAcβ3Galβ4Glc(red)-HDA]		binding activity of neoglycolipid with regard to Helicobacter pylori (in words) [3]: observable binding activity
maltoheptaose(red)-HDA [maltoheptaose/red)-HDA, reference compound]		binding activity of neoglycolipid with regard to Helicobacter pylori (in words) [3]: totally inactive
GlcNAcβ3Galβ4GlcNAcβ3Galβ4Glcβ1Cer [No. 10]		Helicobacter pylori binding activity of glycosphingolipid (in words) ([1]; listed as pentaglycosylceramide): strong activity; also recorded: displayed binding activity; binding frequency for Helicobacter pylori [1]: ~90%; amount of glycolipid giving a positive response on TLC plates (binding of Helicobacter pylori) [2]: 0.039 nmol/spot
NeuGcα3Galβ4GlcNAcβ3Galβ4GlcNAcβ3Galβ4Glcβ1Cer [No. 27]		binding by Helicobacter pylori isolates ([1]; about 60 isolates tested): bound by most Helicobacter pylori isolates
Galα4Galβ4GlcNAcβ3Galβ4Glcβ1Cer [No. 15]	absence of binding	
Fucα2Galβ4GlcNAcβ3Galβ4Glcβ1Cer [No. 18]	absence of binding	
